For two compounds, Inhibitory effect and ED50 results are on record in EP0017484A1, “2-Imidazoline derivatives, process for the preparation thereof and the pharmaceutical composition of the same” (FUJISAWA PHARMACEUTICAL CO., LTD., priority 1979, dated 1980).

For one assay, the system named is Sprague-Dawley rats. As to the kind of experiment: Anti-inflammatory activity: carrageenin hind paw edema. Type of assay: in vivo. The following applies: 100 mg/kg orally 60 minutes before carrageenin (1.5%, 0.1 ml); paw weight after 3 hours versus control animals. The protocol:
Ten Sprague-Dawley rats were used per group. The right hind paw of the rat was injected subcutaneously under the plantar surface with 0.1 ml of carrageenin (1.5%). After 3 hours, the animals were sacrificed. The normal and edematous hind paws were cut off at the tibio-dorsal joint and weighed. The difference in the weight of edematous paw and that of normal paw was a measure of the edema. The test compound (100 mg/kg) was administered orally 60 minutes before the irritating agent. Paw swelling of treated animals was compared with that of control animals.

In another assay the test system is male ddy strain mice. As to the kind of experiment: Analgesic activity: acetic acid writhing syndrome. The following applies: Mus musculus, po; orally 60 minutes before i.p. 0.6% acetic acid; writhing observed from 3 to 13 minutes; Litchfield-Wilcoxon method. Type of assay: in vivo. On the procedure: Ten male ddy strain mice were used for each dose. To estimate the frequency of writhing syndrome, the animals were observed from 3 to 13 minutes after an intraperitoneal injection of 0.2 ml/10 g of 0.6% acetic acid. The drugs were given orally 60 minutes before acetic acid. The frequency of writhing syndrome in the treated animals was compared with that in the non-treated control animals.
The ED50 value was calculated according to Litchfield-Wilcoxon method.

In the case of `Cc1ccc(NC2=NCCN2)c(Oc2ccccc2)c1` [2-(2-Phenoxy-4-methylphenyl)amino-2-imidazoline], in the assay with Sprague-Dawley rats, the Inhibitory effect came out at 48.4%.
For `COc1cc(Oc2ccccc2NC2=NCCN2)cc(OC)c1OC` [2-[2-(3,4,5-Trimethoxyphenoxy)phenyl]amino-2-imidazoline], in the assay with male ddy strain mice, the ED50 is 50.1 mg/kg.
